Measured values taken from PMC9636186 (Nature Communications, 2022).

Target: T1, IBD (ItcR itaconate-binding domain) (Yersinia pseudotuberculosis, UniProt A0A0H3B558)
T1 construct: gene YPK_2265
Settings: protein:itaconate molar ratio 1:100, Bis-Tris pH 6.5, PEG300, 20 °C; SeMet form 7W06

T1 sequence (A0A0H3B558 80-292 limits assumed): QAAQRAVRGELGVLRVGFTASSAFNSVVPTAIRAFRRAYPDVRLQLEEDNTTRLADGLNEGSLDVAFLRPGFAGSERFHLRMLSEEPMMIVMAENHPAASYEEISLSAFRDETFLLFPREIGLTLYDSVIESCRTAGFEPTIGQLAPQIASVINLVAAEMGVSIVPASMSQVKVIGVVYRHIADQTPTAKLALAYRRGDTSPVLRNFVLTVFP

C=C(CC(=O)O)C(=O)O [itaconate]
structure of complex: crystal structure of IBD without or with itaconate binding was determined
